# Experimental data: PubChem BioAssay (NCI)
#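 The compound was tested at five concentrations on cells cultured in 96-well plates, with a 48-hour exposure period. TGI is the concentration that stops growth completely.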
# Legend:
# Experiment in all cases: growth of human tumour cells (NCI), 48 h
# 786-0 renal = test system: 786-0 renal
# A498 renal = test system: A498 renal
# A549 NSCLC = test system: A549 NSCLC
# ACHN renal = test system: ACHN renal
# BT-549 breast = test system: BT-549 breast
# CAKI-1 renal = test system: CAKI-1 renal
# CCRF-CEM leukemia = test system: CCRF-CEM leukemia
# COLO 205 colon = test system: COLO 205 colon
# DU-145 prostate = test system: DU-145 prostate
# EKVX NSCLC = test system: EKVX NSCLC
# HCC-2998 colon = test system: HCC-2998 colon
# HCT-116 colon = test system: HCT-116 colon
# HCT-15 colon = test system: HCT-15 colon
# HOP-62 NSCLC = test system: HOP-62 NSCLC
# HOP-92 NSCLC = test system: HOP-92 NSCLC
# K-562 leukemia = test system: K-562 leukemia
# KM12 colon = test system: KM12 colon
# M14 melanoma = test system: M14 melanoma
# MALME-3M melanoma = test system: MALME-3M melanoma
# MCF7 breast = test system: MCF7 breast
# MDA-MB-231 breast = test system: MDA-MB-231 breast
# MDA-MB-435 = test system: MDA-MB-435
# MDA-N = test system: MDA-N
# MOLT-4 leukemia = test system: MOLT-4 leukemia
# NCI-H226 lung = test system: NCI-H226 lung
# NCI-H23 lung = test system: NCI-H23 lung
# NCI-H460 lung = test system: NCI-H460 lung
# NCI-H522 lung = test system: NCI-H522 lung
# NCI/ADR-RES ovarian = test system: NCI/ADR-RES ovarian
# OVCAR-3 ovarian = test system: OVCAR-3 ovarian
# OVCAR-4 ovarian = test system: OVCAR-4 ovarian
# OVCAR-5 ovarian = test system: OVCAR-5 ovarian
# OVCAR-8 ovarian = test system: OVCAR-8 ovarian
# PC-3 prostate = test system: PC-3 prostate
# RPMI-8226 leukemia = test system: RPMI-8226 leukemia
# RXF 393 renal = test system: RXF 393 renal
# SF-268 CNS = test system: SF-268 CNS
# SF-295 CNS = test system: SF-295 CNS
# SF-539 CNS = test system: SF-539 CNS
# SK-MEL-28 melanoma = test system: SK-MEL-28 melanoma
# SK-OV-3 ovarian = test system: SK-OV-3 ovarian
# SN12C renal = test system: SN12C renal
# SNB-19 CNS = test system: SNB-19 CNS
# SNB-75 CNS = test system: SNB-75 CNS
# SR leukemia = test system: SR leukemia
# T-47D breast = test system: T-47D breast
# U251 CNS = test system: U251 CNS
# UACC-257 melanoma = test system: UACC-257 melanoma
# UACC-62 melanoma = test system: UACC-62 melanoma
# UO-31 renal = test system: UO-31 renal
smiles,measurement,setting,value
Cc1sc(Nc2ccccc2[N+](=O)[O-])c(C#N)c1C,TGI,786-0 renal,61.7 µM
same,TGI,A498 renal,> 100 µM
same,TGI,A549 NSCLC,> 100 µM
same,TGI,ACHN renal,> 100 µM
same,TGI,BT-549 breast,57.9 µM
same,TGI,CAKI-1 renal,> 100 µM
same,TGI,CCRF-CEM leukemia,> 100 µM
same,TGI,COLO 205 colon,> 100 µM
same,TGI,DU-145 prostate,> 100 µM
same,TGI,EKVX NSCLC,> 100 µM
same,TGI,HCC-2998 colon,> 100 µM
same,TGI,HCT-116 colon,> 100 µM
same,TGI,HCT-15 colon,> 100 µM
same,TGI,HOP-62 NSCLC,76.2 µM
same,TGI,HOP-92 NSCLC,53 µM
same,TGI,K-562 leukemia,> 100 µM
same,TGI,KM12 colon,> 100 µM
same,TGI,M14 melanoma,> 100 µM
same,TGI,MALME-3M melanoma,> 100 µM
same,TGI,MCF7 breast,> 100 µM
same,TGI,MDA-MB-231 breast,65.8 µM
same,TGI,MDA-MB-435,> 100 µM
same,TGI,MDA-N,> 100 µM
same,TGI,MOLT-4 leukemia,> 100 µM
same,TGI,NCI-H226 lung,> 100 µM
same,TGI,NCI-H23 lung,44.8 µM
same,TGI,NCI-H460 lung,> 100 µM
same,TGI,NCI-H522 lung,20.9 µM
same,TGI,NCI/ADR-RES ovarian,96.6 µM
same,TGI,OVCAR-3 ovarian,61.2 µM
same,TGI,OVCAR-4 ovarian,> 100 µM
same,TGI,OVCAR-5 ovarian,> 100 µM
same,TGI,OVCAR-8 ovarian,> 100 µM
same,TGI,PC-3 prostate,> 100 µM
same,TGI,RPMI-8226 leukemia,> 100 µM
same,TGI,RXF 393 renal,57.1 µM
same,TGI,SF-268 CNS,61.8 µM
same,TGI,SF-295 CNS,> 100 µM
same,TGI,SF-539 CNS,68.3 µM
same,TGI,SK-MEL-28 melanoma,> 100 µM
same,TGI,SK-OV-3 ovarian,> 100 µM
same,TGI,SN12C renal,> 100 µM
same,TGI,SNB-19 CNS,61.9 µM
same,TGI,SNB-75 CNS,39.9 µM
same,TGI,SR leukemia,> 100 µM
same,TGI,T-47D breast,> 100 µM
same,TGI,U251 CNS,62.6 µM
same,TGI,UACC-257 melanoma,> 100 µM
same,TGI,UACC-62 melanoma,> 100 µM
same,TGI,UO-31 renal,> 100 µM
